Results as given in patent US20030232797A1, “Novel derivatives of androstane and androstene with ascorbic acid and use thereof in treating or preventing various conditions, diseases, and disorders” (priority 2002, published 2003).
Where a name gives a salt, the structure may show the parent alone.

SMILES: C[C@]12CC[C@H](OP(=O)(O)OC3=C(O)C(C(O)CO)OC3=O)CC1=CCC1C2CC[C@@]2(C)C1CC[C@@H]2OP(=O)(O)OC1=C(O)C(C(O)CO)OC1=O (stereo partly drawn) [Diascorbyl diphosphate of androst-5ene-3β,17β-diol, tetrasodium salt]
- Solubility in ethanol (ethanol): Slightly soluble
- Solubility in water (water, 50 mg sample, 50 microliter portions every 10 minutes, ultrasonic bath): 10.6 %, w/w
